Laboratory results published in US20050009748A1, “Compositions for delivering peptide YY and PYY agonists” (Emisphere Technologies, Inc., priority 2003, published 2005).
Where “and” joins values, the source holds several entries; their conditions need not be identical. Equal values may be shown once.

What was measured:
[1] = Liquid oral delivery of PYY[3-36] in rats (oral gavage, serum PYY[3-36] radioimmunoassay); type: in vivo, Male Sprague-Dawley rats; conditions: oral gavage solution, Delivery Agent 200 mg/kg, PYY[3-36] 0.3 mg/kg, 1 ml/kg
Procedure: SNAC monosodium salt, solid was dissolved in water. The pH of this solution was close to pH 7.5, so no pH adjustments were done. […] The final pH of these solutions was 7.5.
The pH was then lowered to 7.7 by adding HCl (5N). […] The final pH of these solutions varied between 7.5 and 7.6.
Each delivery agent compound (as the free acid or monosodium salts) was dissolved in water. The pH was adjusted to approximately 7.5 by adding HCl (5N) and NaOH (5N) as needed. […] The final pH of these solutions was approximately 7.5.
The typical dosing and sampling protocols were as follows. Male Sprague-Dawley rats weighing between 240-320 g were fasted up to a maximum 24 hours before the experiments and administered ketamine (44 mg/kg) and thorazine (1.5 mg/kg) by intramuscular injection before the test article administration. Afterwards, the anesthetized animals were administered the test article by oral gavage. A dosing group of five animals was administered one of the dosing solutions. For oral gavage (PO), an 11 cm Rusch 8 French catheter was adapted to a 1 ml syringe with a pipette tip. The syringe was filled with dosing solution by drawing the solution through the catheter, which was then wiped dry. The catheter was placed down the esophagus leaving 1 cm of tubing past the incisors. The dosing solution was administered by pressing the syringe plunger.
Blood samples were collected serially from the tail artery, or by cardiac puncture, typically at time=0, 15, 30, 45, 60 and 90 minutes. […] Results from the animals in each group were averaged for each time point.

[2] = Solid oral delivery of PYY[3-36] in feed restricted rats (serum PYY radioimmunoassay); type: in vivo, Male Sprague Dawley rats; conditions: 1 tablet per animal
Procedure: An oral dosing tube was used.
Blood samples were collected serially from the tail artery, by cardiac puncture, or as in this case by retro-orbitally, typically at time=0, 15, 30, 60 and 90 minutes.

[3] = rats, end of 7-day study, food found in the stomachs
Procedure: Food was removed prior to dosing and returned 30 minutes after dosing.
An oral dosing tube was used. The dosing tube was inserted into the rat's mouth and carefully threaded down the rats pharynx and esophagus about 8 cm to about 15 cm depending on the weight of the rat (typically about 11 cm). The solid dosage form was delivered into the distal esophagus and/or stomach by pressing the plunger of the oral dosing tube.
Food consumption was determined every 24 hours from the weight difference between the food given to and food left over by each rat. The body weight of each rat was determined every 24 hours.

[4] = Delivery Agent 100 mg/kg, PYY[3-36] 0.3 mg/kg
[5] = Delivery Agent 50 mg/kg, PYY[3-36] 0.3 mg/kg

Compound: COc1ccc(C(=O)NCCCCCCCC(=O)O)c(O)c1 [Delivery Agent 4, 8-(2-hydroxy-4-methoxybenzoylamino)octanoic acid]
- Mean Peak Serum [PYY(3-36)] (pg/ml) ± SD [1]: 830.246 ± 71.382 pg/mL
- Mean serum peak of PYY (pg/ml) ± SD [2, 4]: 1821.82 ± 1513.84 pg/mL

Compound: O=C(O)CCCCCCCNC(=O)c1c(O)cccc1O [Delivery Agent 5, 8-(2,6-dihydroxybenzoylamino)octanoic acid]
- Mean Peak Serum [PYY(3-36)] (pg/ml) ± SD [1]: 800.318 ± 40.61 pg/mL

Compound: O=C(O)CCCCCCCNC(=O)c1cc(Br)ccc1O [Delivery Agent 6, 8-(2-hydroxy-5-bromobenzoylamino)octanoic acid]
- Mean Peak Serum [PYY(3-36)] (pg/ml) ± SD [1]: 812.946 ± 53.616 pg/mL

Compound: O=C(O)CCCCCCCNC(=O)c1cc(Cl)ccc1O [Delivery Agent 7, 8-(2-hydroxy-5-chlorobenzoylamino)octanoic acid]
- Mean Peak Serum [PYY(3-36)] (pg/ml) ± SD [1]: 663.472 ± 135.394 pg/mL
- Mean serum peak of PYY (pg/ml) ± SD [2, 5]: 725.96 ± 110.78 pg/mL
- Mean serum peak of PYY (pg/ml) ± SD ([2]; Delivery Agent 100 mg/kg, PYY[3-36] 0 mg/kg (delivery agent alone)): 14.35 ± 19.71 pg/mL
- Mean serum peak of PYY (pg/ml) ± SD [2, 4]: 1064.18 ± 363.8 pg/mL

Compound: O=C(O)CCCCCCCNC(=O)c1cc(I)ccc1O [Delivery Agent 8, 8-(2-hydroxy-5-iodobenzoylamino)octanoic acid]
- Mean Peak Serum [PYY(3-36)] (pg/ml) ± SD [1]: 276.82 ± 425.45 pg/mL

Compound: Cc1ccc(O)c(C(=O)NCCCCCCCC(=O)O)c1 [Delivery Agent 9, 8-(2-hydroxy-5-methylbenzoylamino)octanoic acid]
- Mean Peak Serum [PYY(3-36)] (pg/ml) ± SD [1]: 732.912 ± 266.578 pg/mL
- Mean serum peak of PYY (pg/ml) ± SD [2, 4]: 1309.8 ± 836.33 pg/mL

Compound: O=C(O)CCCCCCCNC(=O)c1cc(F)ccc1O [Delivery Agent 10, 8-(2-hydroxy-5-fluorobenzoylamino)octanoic acid]
- Mean Peak Serum [PYY(3-36)] (pg/ml) ± SD [1]: 846.416 ± 55.993 pg/mL
- Mean serum peak of PYY (pg/ml) ± SD [2, 5]: 897.18 ± 549.5 pg/mL

Compound: O=C(O)CCCCCCCOc1cccc(O)c1 [Delivery Agent 12, 8-(3-hydroxyphenoxy)octanoic acid]
- Mean Peak Serum [PYY(3-36)] (pg/ml) ± SD [1]: 845.682 ± 69.846 pg/mL and 1047.46 ± 36.93 pg/mL

Compound: O=C(O)CCCCCCCOc1ccc(O)cc1 [Delivery Agent 13, 8-(4-hydroxyphenoxy)octanoic acid]
- Mean Peak Serum [PYY(3-36)] (pg/ml) ± SD [1]: 826.48 ± 379.12 pg/mL

Compound: N#Cc1ccccc1OCCCCCC(=O)O [Delivery Agent 14, 6-(2-cyanophenoxy)hexanoic acid]
- Mean Peak Serum [PYY(3-36)] (pg/ml) ± SD [1]: 913.536 ± 33.688 pg/mL and 1083.38 ± 78.878 pg/mL

Compound: O=C(O)CCCCCCCOc1ccc(O)cc1 [Delivery Agent 17, 8-(4-hydroxyphenoxy)octanoate]
- Mean serum peak of PYY (pg/ml) ± SD ([2]; Delivery Agent 100 mg/kg, PYY[3-36] 0.3 mg/kg, listed as 17): 897.18 ± 549.5 pg/mL

Compound: O=C(O)CCCCCCCOc1ccc(O)cc1 [Delivery Agent 18, 8-(4-hydroxyphenoxy)octanoate]
- Mean serum peak of PYY (pg/ml) ± SD [2, 5]: 940.33 ± 1090.65 pg/mL
- Mean serum peak of PYY (pg/ml) ± SD [2, 4]: 1216.13 ± 661.31 pg/mL

Compound: PYY[3-36]
- effect on gastric emptying [3]: no effect on gastric emptying
